The test system of the test is intestinal microbiota. Briefly: Faecal microbial profile (16S rRNA gene sequencing, MALDI-TOF) in randomised placebo-controlled trial. It counts as in vivo, human. The protocol: The study described herein was a pilot, single site, randomised, double blind, placebo-controlled trial. Ethical approval was granted by the Sydney Local Health District Human Research Ethics Committee, RPA Hospital, Sydney, Australia. The study was carried out according to the Declaration of Helsinki, the National Health and Medical Research Council National Statement on Ethical Conduct in Research Involving Humans and the Notes for Guidance on Good Clinical Practice as adopted by the Australian Therapeutic Goods Administration and the International Conference on Harmonisation Good Clinical Practise guidelines. Written informed consent was obtained from participants before enrolment.
The active product administered was a capsule containing 5×10^10 colony forming units (cfu) of a multi-strain probiotic combination of Lactobacillus plantarum, Lactobacillus bulgaricus, Lactobacillus gasseri, Bifidobacterum breve, Bifidobacterium animalis subsp. lactis, Bifidobacterium bifidum, Streptococcus thermophilus and Saccharomyces boulardii. The placebo was a capsule containing 50 mg maltodextrin. The probiotic and placebo capsules were opaque white in colour and looked and smelled identical. […]
Faecal bacterial profiles were determined using the Ion S5 next-generation sequencing platform (Thermo Fisher) and faecal yeasts were identified by matrix-assisted laser desorption ionization time-of-flight mass spectrometry (MALDI-TOF). […] After extraction, DNA was quantified in a Qubit 2.0 Fluorometer (Invitrogen, Thermo Fisher). […] PCR products were quantified and their quality was evaluated by electrophoretic fractionation in 2% agarose gels (E-Gel, EX Agarose Gel, Thermo Fisher). […]

In the case of `CN(C)C(=N)NC(=N)N` [metformin, N,N-dimethylimidodicarbonimidic diamide], the “intestinal microbial community (beta diversity) at species and genera level” value (participants taking vs not taking metformin, p=0.002 (species) and 0.036 (genera)) is “differed from those not taking metformin”. For the setting “participants taking vs not taking metformin, p=0.56”, the “effect on intestinal microbiota at the family level” value is recorded as “no effect”. Also, the “relative abundance of Akkermansia municiphila” value (those taking metformin in the placebo group, in contrast to the probiotic group) is “lower relative abundance”.

Values taken from patent US20200345795A1, “MODULATION OF INTESTINAL MICROBIOTA IN PRE-DIABETES AND TYPE 2 DIABETES” (Medlab IP Pty Ltd, priority 2017, published 2020).
